Earlier results, collected in patent US7585978B2, “Processes of manufacturing substituted-1,4-dihydropyridines, improved aqueous solutions thereof, and processes of manufacturing the solutions” (Navinta LLC, priority 2006, dated 2009).
“Also recorded” adds a separate entry of the source. Structures can show the parent of a compound that is named as a salt.

Assays:
[1] = hydrochloride

| SMILES | pKa (first of three pKa values) | pKa (second of three pKa values) | solubility in water [1] |
| --- | --- | --- | --- |
| N=C(N)NCCC[C@H](N)C(=O)O [L-arginine] | 2.18 | 9.09 |  |
| COC(=O)C1=C(C)NC(C)=C(C(=O)OCCN(C)Cc2ccccc2)C1c1cccc([N+](=O)[O-])c1 (stereo not drawn) [nicardipine hydrochloride] |  |  | poorly soluble in water; also recorded: very poorly soluble in water |
